# Source: US6784153B1, “Methods of homing molecules to lung using membrane dipeptidase” (The Burnham Institute, priority 1998, dated 2004)
# What was measured:
# [1] = system: MDP; settings: cited from earlier work
# [2] = molecular target: T1, MDP (Mus musculus, UniProt P31428); assay: inhibition of MDP activity (hydrolysis of Gly-D-Phe, fluorimetric); type: biochemical, murine; settings: Gly-D-Phe 0.5 mM; extracts from MDP-expressing COS-1 cells
# T1 construct: The amplified 1.3 kb murine MDP cDNA was digested with KpnI and XbaI, and inserted into the same sites of the pcDNA3 expression vector; expressed in transfected cells; host or cells: COS-1 cells, pcDNA3 expression vector
# T1 sequence (P31428 17-384): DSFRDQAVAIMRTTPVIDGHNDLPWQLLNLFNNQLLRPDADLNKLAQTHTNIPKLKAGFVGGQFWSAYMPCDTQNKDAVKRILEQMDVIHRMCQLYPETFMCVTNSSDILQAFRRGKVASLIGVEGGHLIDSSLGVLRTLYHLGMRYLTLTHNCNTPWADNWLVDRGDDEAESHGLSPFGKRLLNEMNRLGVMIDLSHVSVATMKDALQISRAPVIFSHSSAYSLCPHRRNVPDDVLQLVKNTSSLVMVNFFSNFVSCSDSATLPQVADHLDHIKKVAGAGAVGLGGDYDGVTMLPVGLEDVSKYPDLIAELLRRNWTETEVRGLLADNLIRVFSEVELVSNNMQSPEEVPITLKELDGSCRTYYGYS
# Method: […] […] Fluorescence was measured using an fmax fluorescence microplate reader from Molecular Devices (Sunnyvale, Calif.).
# (§1) Phage binding to COS-1 cells transfected with MDP was determined as follows. Briefly, 10^7 COS-1 cells were transfected with 10 μg of either the MDP expression vector or the vector alone. After 48 hours, cells were scraped gently from the dish, washed once, and subjected to the phage binding assay or membrane dipeptidase activity assay described above. For the phage binding assay, 5×10^6 cells and 10^10 transducing units (TU) of phage input were used. For measurement of membrane dipeptidase activity, 10^6 cells were lysed in 100 μl of PBS/octylglycoside without protease inhibitors. A 10 μl aliquot of the extract was used to measure MDP activity.
# Fluorimetric detection of D-Phe was performed as described above.
# [3] = system: C8161 human melanoma cells
# [4] = system: skin; assay: immunohistologic analysis of skin homing phage; type: in vivo, mice
# Method: Phage displaying homing peptides were detected in lung, pancreas and skin by immunostaining histologic sections obtained 5 min after administration of phage expressing a lung, pancreas or skin homing peptide (“peptide-phage”) to a mouse. Following administration of the peptide-phage, mice were handled as described above and various organs, including lung, pancreas and skin, were removed and fixed in Bouin's solution (SIGMA). Histologic sections were prepared and reacted with anti-M13 (phage) antibodies (Pharmacia Biotech; see U.S. Pat. No. 5,622,699, supra, 1997; Pasqualini and Ruoslahti, supra, 1996). Visualization of the bound anti-M13 antibody was performed using a second antibody conjugated to peroxidase (SIGMA) according to the manufacturer's instructions.
# Experiments were performed in skin using phage displaying the skin homing peptide CVALCREACGEGC (SEQ ID NO: 3). In these experiments, histological samples from the skin as well as control organs and tissues including lung and pancreas were prepared and examined by immunostaining as described above.
# [5] = system: skin; assay: in vivo homing of phage displaying peptides to skin; set-up: species or system mice
# Method: For in vivo panning of skin, two month old BALB/c nude mice were used to avoid contamination by hair. The mice were injected intravenously with phage as described above and, after perfusion through the heart, the skin was removed in large sections and placed on an ice cold plate with the hypodermis facing up. The skin was scraped with a scalpel to remove mostly hypodermis, which was then processed for phage recovery as described below.
# Approximately 250 to 300 individual bacterial colonies containing phage recovered from the various organs or tissues were grown for 16 hr in 5 ml NZY/tet. In some experiments, approximately 1000 individual bacteria containing phage were picked and the phage were amplified in 2 ml of NZY/tet or the entire plate containing phage was scraped, pooled and grown in bulk and processed for injection. Where phage were cultured separately, the cultures were pooled and the phage were injected into mice or rats as described above for a second round of in vivo panning. In some experiments, a third or fourth round of panning was performed. Phage DNA was purified from individual bacterial colonies obtained and the DNA sequences encoding the peptides expressed by selected phage were determined (see Koivunen et al., supra, 1994b).
# in After two or three rounds of in vivo panning of mice injected with a cyclic CX3CX3CX3C (SEQ ID NO: 25) phage display library, the peptide sequence CVALCREACGEGC (SEQ ID NO: 3), which appeared repeatedly in skin, was identified (Table 1). To determine the specificity of skin homing of the sequence CVALCREACGEGC (SEQ ID NO: 3), phage displaying the peptide was amplified individually, diluted to the same input titer and administered to mice. Following administration, control kidney and brain organ were removed and the number of TU of phage in skin, kidney and brain was determined.
# Peptides that were identified more than one time during screening are indicated by an asterisk. For example, 14% of recovered CX3CX3CX3C (SEQ ID NO: 25) phage that homed to head skin had the sequence CVDVCCDGCPVCC (SEQ ID NO: 437). Phage having the sequence RVPLSGDVEH (SEQ ID NO: 438), LRVMSFTSGQ (SEQ ID NO: 439), or RFSVGSLFGS (SEQ ID NO: 440) each constituted 14% of recovered CX10C (SEQ ID NO: 30) phage that homed to head skin.
# [6] = molecular target: T2, murine MDP (Mus musculus, UniProt P31428); assay: phage binding to COS-1 cells transfected with MDP; settings: 5×10^6 COS-1 cells, 10^10 TU phage
# T2 construct: The amplified 1.3 kb murine MDP cDNA was digested with KpnI and XbaI, and inserted into the same sites of the pcDNA3 expression vector; expressed in transfected cells; host or cells: COS-1 cells, pcDNA3 expression vector
# T2 sequence (P31428 17-384): T1 sequence (P31428 17-384)
# Method: The COS-1 cell line, which is known to have low or no detectable level of MDP activity, has been used extensively to study MDP structure and function (Keynan et al., supra, 1996; Keynan et al., Biochem, J. 326:47-51 (1997)). COS-1 cells were trasfected with murine MDP and used to assay binding to SEQ ID NOS: 1 and 2 as described below.
# For transfection into COS-1 cells, a murine MDP expression vector was prepared as follows. Total mouse lung RNA was isolated using Qiagen RNA purification columns (Qiagen; Santa Clarita, Calif.) and used as a template for first strand cDNA synthesis with reverse transcriptase and a mixture of random hexamers and poly-dT oligonucleotides (GIBCO/BRL; Grand Island, N.Y.). Mouse MDP cDNA (Pasqualini et al., J. Cell Biol. 130:1189-1196 (1995)) was amplified from the cDNA pool by PCR using the oligonucleotide pair: […] (SEQ ID NO: 446), which contains a KpnI adaptor, and […] (SEQ ID NO: 447), which contains an XbaI adaptor, using Taq polymerase from GIBCO/BRL. The amplified 1.3 kb murine MDP cDNA was digested with KpnI and XbaI, and inserted into the same sites of the pcDNA3 expression vector (Invitrogen; Carlsbad, Calif.) using DNA restriction enzymes and T4 DNA ligase from New England Biolabs (Beverly, Mass.). Successful cloning of the murine MDP cDNA was confirmed by DNA sequencing. Transfection of the COS-1 cells was performed with the Superfect Reagent from Qiagen as recommended by the manufacturer.
# as §1
# [7] = molecular target: T3, 55 kDa lung vascular surface protein (Mus musculus, UniProt P31428); assay: peptide affinity chromatography of in vivo biotinylated lung extract; type: binding; settings: elution with GFE-1 peptide
# T3 construct: from tissue; host or cells: Balb/c mouse lung, in vivo biotinylated, octylglucoside extract
# T3 sequence (P31428 17-384): T1 sequence (P31428 17-384)
# Method: In vivo biotinylation of endothelial cell surface proteins was performed as previously described in De La Fuente et al., Am. J. Physiol. […] Briefly, Balb/c mice were anesthetized with Avertin and perfused slowly through the heart for 10 to 15 minutes with approximately 15 ml of PBS containing 0.5 mg/ml of sulfo-NHS-LC-biotin (Pierce; Rockford, Ill.). Well perfused lungs or control tissues such as brain were then collected and incubated on ice for 20 minutes. The tissues were then homogenized for preparation of extracts as described further below.
# For preparation of extracts, mouse or rat lungs were first minced and then homogenized with a Brinkman homogenizer (Brinkman; Wesbury, N.Y.) in a minimal volume (2.5 ml/g of tissue) of cold PBS containing 100 mM N-octyl-β-D-glucopyranoside (Calbiochem; La Jolla, Calif.) with 1 mM phenylmethylsulfonyl fluoride (PMSF), 20 μg/ml aprotinin and 1 μg/ml leupeptin (PBS/octylglucoside). The homogenized tissue was incubated on ice for 2 hours, and then centrifuged at 12,000×g for 30 minutes to remove cell debris. The pooled supernatants were cleared of any debris prior to affinity chromatogaphy.
# All steps were performed at 4° C. […] The matrix contained approximately 2 mg/ml of peptide. […] The extract was applied to the column, and the flow-through re-applied over a period of 90 minutes. The column was then washed with 20 volumes of column buffer. […]
# [8] = system: lung primary cells; assay: phage binding assay on lung primary cells; set-up: species or system mice; settings: 150 μM peptide
# Method: Phage binding to primary cells was performed as follows. Briefly, Balb/c mice (Harlan Sprague Dawley) were anesthetized with 0.017 ml/g of Avertin as described in Gardner et al., Lab. […] Under deep anesthesia, mice were perfused through the heart with 10 ml Dulbecco's modified Eagle's medium (DMEM; Irvine Scientific; Santa Ana, Calif.). The lungs, kidneys and brain were then collected, minced, placed in 2 ml of DMEM containing 0.5% BSA (Intergen; Purchase, N.Y.) and 0.5 μg/ml collagenase V (SIGMA) and incubated at 37° C. for 25 minutes. Following collagenase treatment, the tissue was forced through a […] pore cell strainer (Becton Dickinson; Franklin Lake, N.J.). The filtered cells were washed once with 10 ml DMEM supplemented with 10% serum.
# For the binding reaction, 10^9 transducing units (TU) of phage were incubated with 5×10^6 cells in 1 ml DMEM supplemented with 10% serum. The binding was performed at 4° C. for 2 hours with gentle agitation. After the binding reaction, the cells were washed four times with 1 ml of DMEM supplemented with 10% serum at room temperature for 5 to 10 minutes each time. The cells were centrifuged, and the cell pellet resuspended in 100 μl of DMEM and transferred to a new tube. […] The bacteria were then diluted in 10 ml of LB culture media supplemented with 0.2 μg/ml tetracycline, and incubated for another 30 minutes at room temperature. Serial dilutions of the bacterial culture were plated on LB plates containing 40 μg/ml tetracycline. Plates were incubated at 37° C. overnight before the colonies were counted (transducing units, TU).
molecule,measurement,setting,value
"CCCCC/C=C(\NC(=O)C1CC1(C)C)C(=O)O (racemic) [Z-2-(2,2 dimethylcyclopropanecarboxamido)-2-octenoic acid]",activity of resolved isomers,[1],Activity resides in the dextrorotatory isomer
"O=c1[nH]cc(F)c(=O)[nH]1 [CARAC, reference compound]",inhibition of hydrolysis of Gly-D-Phe by MDP,[2],did not inhibit the enzyme
same,toxicity to the melanoma cells,[3],Neither the GFE-1 (SEQ ID NO: 1) or CARAC (SEQ ID NO: 443) peptides exhibited toxicity
CVALCREACGEGC [skin homing peptide],immunostaining of skin,[4]; 5 min after phage,staining in blood vessels of the hypodermis
same,staining of lung and pancreas after skin homing phage,[4]; control tissues,no staining was observed in control the lung and pancreas
same,% OF MOTIF AMONG ALL CLONES,[5]; SKIN,6%
same,skin/brain phage ratio,[5]; SKIN section,7
same,phage bound to skin than to kidney or brain,[5]; individually amplified phage,7 ×
same,enriched in skin over unselected phage,"[5]; mouse, in vivo",7 ×
same,selectivity for skin over unselected phage and over background in brain and kidney,"[5]; mouse, in vivo",7 fold
same,phage bound to MDP transfected cells than to mock transfected cells,[6],no specific binding
GRGESP: control peptide [reference compound],binding of lung surface protein to peptide affinity column,[7],No proteins in the 55 kDa range were detected
same,inhibition of GFE-1 phage binding to lung cells,[8],no effect
